Assay results from US10722480B2, “Agent for controlling cells constituting cancer microenvironment or inflammatory microenvironment” (The University of Tokyo, priority 2015, dated 2020).

How the values were obtained:
[1] = biological target: T1, Full-length FROUNT protein (Homo sapiens, UniProt Q9BW27); experiment: Surface plasmon resonance binding to FROUNT; conditions: SPR
T1 construct: made in house
T1 sequence (Q9BW27 1-656): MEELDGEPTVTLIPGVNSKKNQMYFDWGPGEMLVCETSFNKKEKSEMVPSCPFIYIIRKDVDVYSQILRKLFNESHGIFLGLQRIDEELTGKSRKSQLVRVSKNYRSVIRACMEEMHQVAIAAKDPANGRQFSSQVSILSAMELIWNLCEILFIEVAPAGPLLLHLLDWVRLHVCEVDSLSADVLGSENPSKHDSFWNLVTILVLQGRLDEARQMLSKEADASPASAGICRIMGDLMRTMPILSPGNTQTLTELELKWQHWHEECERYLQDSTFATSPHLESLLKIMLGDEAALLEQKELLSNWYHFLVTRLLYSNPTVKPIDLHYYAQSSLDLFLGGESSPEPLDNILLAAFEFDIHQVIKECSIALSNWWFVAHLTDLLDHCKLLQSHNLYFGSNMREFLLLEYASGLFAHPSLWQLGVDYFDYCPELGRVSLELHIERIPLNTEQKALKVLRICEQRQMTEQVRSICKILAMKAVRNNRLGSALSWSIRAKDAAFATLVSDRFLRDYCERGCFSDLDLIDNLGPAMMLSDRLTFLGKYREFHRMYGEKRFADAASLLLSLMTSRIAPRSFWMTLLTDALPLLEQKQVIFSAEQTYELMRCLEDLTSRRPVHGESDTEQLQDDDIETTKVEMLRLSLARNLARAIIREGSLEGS
Method: Interactions between FROUNT and compounds in the library were analyzed by surface plasmon resonance (SPR) using Biacore […] (GE Healthcare). Full-length FROUNT protein (SEQ ID NO:2) (Esaki, K. et al. Protein Expr Purif 77, 86-91, (2011)) was immobilized on a CM5 sensor chip. Solutions of disulfiram prepared by serial dilution in HBS-EP buffer containing 2% DMSO (GE Healthcare) were applied to the sensor chip at a flow rate of 30 μL/min. The resonance unit (RU) was measured during the process from the binding to the washing to analyze the binding dynamics. Biacore T100 evaluation software was used to carry out solvent correction for DMSO.

[2] = system: LLC tumor cells; experiment: LDH cytotoxicity assay, LLC tumor cells; assay type: cell-based; conditions: LDH release, 72 hours
Method: (§1) The cytotoxicity of inhibitors was tested by using LDH Cytotoxicity Detection Kit (TaKaRa) according to the manufacturer's instructions. Briefly, tumor cells were cultured in the presence or absence of an agent (disulfiram or 5FU) for 72 hours, and the culture supernatant was then collected and tested for the concentration of lactate dehydrogenase released from damaged cells. For measurement of cell proliferation, cells were incubated in a plate well together with an inhibitor for 48 hours. During the last 30 minutes, WST-1 (Dojindo Laboratories) was added to the culture liquid, and the absorbance of each well was measured at 450 nm versus 650 nm reference using EnVision (PerkinElmer) to detect the formazan level.

[3] = system: B16F10 melanoma cells; experiment: LDH cytotoxicity assay, B16F10 melanoma cells; assay type: cell-based; conditions: LDH release, 72 hours
Method: as §1

[4] = system: human leukocyte cell line THP-1; experiment: In vitro chemotaxis assay, THP-1; assay type: cell-based; conditions: THP-1, concentration without cytotoxicity
Method: A human leukocyte cell line THP-1 was counted and resuspended in Boyden buffer (RPMI medium supplemented with 0.1% BSA), and the cells were preincubated with disulfiram before the chemotaxis assay. The cell migration activity was measured using a 96-well ChemoTX Chemotaxis Chamber (Neuro probe) with a polycarbonate filter with a pore size of […] Chemokine was applied to the lower chamber of the plate, and the cells were applied to the upper chamber. After incubation at 37° C. in 5% CO2 for 90 minutes, the filter was removed, and the number of migrated cells in the lower chamber was counted using Cell Counting Kit F (Dojindo Laboratories).

[5] = system: LLC tumor; experiment: Combined use with anti-PD-1 antibody, LLC tumor-bearing model; assay type: in vivo, mouse; conditions: DSF in feed from Day 4, anti-PD-1 antibody 0.2 mg i.p. x4
Method: To provide an example of combined use of an anticancer drug and disulfiram (DSF), the effect of combined use of an anti-PD-1 antibody, which is an anticancer drug targeting an immune checkpoint molecule, and DSF was studied using an LLC tumor-bearing model and a B16 tumor-bearing model. The B16 tumor-bearing model was prepared by transplanting 5×10^5 B16 melanoma cells to the right abdomen of each of wild-type C57BL/6 mice. Preparation of the LLC tumor-bearing model was carried out in the same manner as in the above-described section 3. A feed supplemented with DSF was provided in the same manner as in the above-described section 3.
The day of the transplantation of the tumor cells to the mice was defined as Day 0. From Day 4, the mice were fed with the feed supplemented with DSF or a control feed every day during the experimental period. An anti-PD-1 antibody (J43, manufactured by BioXcell) was intraperitoneally administered once at a dose of 0.2 mg on each of Day 5, Day 8, Day 14, and Day 18 (four times in total). To provide a control for the antibody administration, PBS was intraperitoneally administered. The tumor size was measured using a caliper twice a week, and the tumor volume was calculated.

[6] = biological target: T2, aldehyde dehydrogenase (ALDH) (Rattus norvegicus, UniProt P11884); conditions: Excerpt from Alcohol Clin Exp Res 1996.20.595-; read-out: ALDH inhibition; cited from earlier work
T2 sequence (P11884 20-519): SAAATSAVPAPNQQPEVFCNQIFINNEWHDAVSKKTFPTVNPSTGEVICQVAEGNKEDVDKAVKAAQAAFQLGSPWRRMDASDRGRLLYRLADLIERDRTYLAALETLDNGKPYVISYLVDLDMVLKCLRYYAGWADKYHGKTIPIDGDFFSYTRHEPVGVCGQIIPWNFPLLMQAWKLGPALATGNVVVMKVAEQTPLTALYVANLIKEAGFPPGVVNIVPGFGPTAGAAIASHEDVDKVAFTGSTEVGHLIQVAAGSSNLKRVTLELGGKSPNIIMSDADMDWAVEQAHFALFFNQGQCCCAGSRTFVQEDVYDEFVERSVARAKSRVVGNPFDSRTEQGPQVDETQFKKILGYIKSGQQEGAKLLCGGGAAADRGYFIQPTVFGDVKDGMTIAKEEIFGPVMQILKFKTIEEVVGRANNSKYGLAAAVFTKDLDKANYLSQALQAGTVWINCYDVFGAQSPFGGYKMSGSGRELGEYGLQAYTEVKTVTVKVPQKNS

Compound: CCN(CC)C(=S)SSC(=S)N(CC)CC [DSF, disulfiram]
- binding to FROUNT protein [1]: directly bound
- cytotoxic activity on LLC tumor cells [2]: did not show cytotoxic activity
- cytotoxic activity on B16F10 melanoma cells [3]: did not show any action
- cell migration mediated by CCL2 [4]: inhibited
- hyperplasia of cancer cells (tumor volume) [5]: inhibited
- IC50 [6]: 7.4 µM
